The NIST ThermoML archive (doi:10.1021/je800110r)
± gives the expanded uncertainty stated by the source.

Details: 283.15 K, Liquid, Vibrating tube method

CCCCCCCCCC [decane]
Details	mass density [kg/m3]
7092 kPa	742.4 ± 2
7106 kPa	742.5 ± 2
7121 kPa	742.6 ± 2
7134 kPa	742.5 ± 2
7192 kPa	742.7 ± 2
7205 kPa	742.5 ± 2
7258 kPa	742.6 ± 2
7275 kPa	742.6 ± 2
7296 kPa	742.6 ± 2
7315 kPa	742.8 ± 2
7327 kPa	742.7 ± 2
7342 kPa	742.7 ± 2
7357 kPa	742.7 ± 2
7374 kPa	742.7 ± 2
7387 kPa	742.8 ± 2
7404 kPa	742.6 ± 2
7420 kPa	742.9 ± 2
7435 kPa	742.8 ± 2
7452 kPa	742.7 ± 2
7466 kPa	742.7 ± 2
7484 kPa	742.8 ± 2
7505 kPa	742.8 ± 2
7518 kPa	742.8 ± 2
7534 kPa	742.8 ± 2
7548 kPa	742.7 ± 2
7567 kPa	742.9 ± 2
7581 kPa	742.8 ± 2
7595 kPa	742.8 ± 2
7611 kPa	742.9 ± 2
7628 kPa	742.9 ± 2
7643 kPa	742.9 ± 2
7658 kPa	742.9 ± 2
7697 kPa	743.1 ± 2
7710 kPa	743 ± 2
7722 kPa	743 ± 2
7735 kPa	743 ± 2
7783 kPa	743 ± 2
7795 kPa	743 ± 2
7814 kPa	743.1 ± 2
7830 kPa	742.9 ± 2
7845 kPa	743.1 ± 2
7855 kPa	743 ± 2
7867 kPa	743.1 ± 2
7879 kPa	743.1 ± 2
7891 kPa	743.1 ± 2
7903 kPa	743.1 ± 2
7915 kPa	743 ± 2
7926 kPa	743.1 ± 2
7942 kPa	743.2 ± 2
7957 kPa	743.2 ± 2
7975 kPa	743.1 ± 2
7991 kPa	743 ± 2
8004 kPa	743.1 ± 2
8018 kPa	743.1 ± 2
8033 kPa	743.2 ± 2
8045 kPa	743.2 ± 2
8060 kPa	743.2 ± 2
8078 kPa	743.1 ± 2
8091 kPa	743.2 ± 2
8112 kPa	743.4 ± 2
8127 kPa	743.2 ± 2
8143 kPa	743.3 ± 2
8159 kPa	743.2 ± 2
8171 kPa	743.4 ± 2
8318 kPa	743.4 ± 2
8332 kPa	743.4 ± 2
8347 kPa	743.4 ± 2
8361 kPa	743.3 ± 2
8376 kPa	743.4 ± 2
8392 kPa	743.5 ± 2
8412 kPa	743.4 ± 2
8430 kPa	743.4 ± 2
8446 kPa	743.4 ± 2
8462 kPa	743.4 ± 2
8478 kPa	743.5 ± 2
8497 kPa	743.6 ± 2
8513 kPa	743.5 ± 2
8529 kPa	743.6 ± 2
8546 kPa	743.5 ± 2
8563 kPa	743.6 ± 2
8580 kPa	743.5 ± 2
8596 kPa	743.5 ± 2
8612 kPa	743.6 ± 2
8631 kPa	743.7 ± 2
8648 kPa	743.7 ± 2
8660 kPa	743.6 ± 2
8677 kPa	743.6 ± 2
8695 kPa	743.6 ± 2
8706 kPa	743.7 ± 2
8720 kPa	743.7 ± 2
8735 kPa	743.8 ± 2
8747 kPa	743.7 ± 2
8762 kPa	743.7 ± 2
8774 kPa	743.8 ± 2
8790 kPa	743.7 ± 2
8804 kPa	743.7 ± 2
8818 kPa	743.6 ± 2
8832 kPa	743.9 ± 2
8862 kPa	743.6 ± 2
8890 kPa	743.7 ± 2
9095 kPa	743.9 ± 2
9109 kPa	743.9 ± 2
9124 kPa	744 ± 2
9134 kPa	743.9 ± 2
9147 kPa	743.8 ± 2
9162 kPa	744 ± 2
9174 kPa	744 ± 2
9189 kPa	743.9 ± 2
9203 kPa	744.1 ± 2
9220 kPa	744 ± 2
9233 kPa	744.1 ± 2
9250 kPa	744.1 ± 2
9261 kPa	744 ± 2
9274 kPa	744.1 ± 2
9287 kPa	744 ± 2
9304 kPa	744 ± 2
9315 kPa	744 ± 2
9326 kPa	744.1 ± 2
9337 kPa	744.2 ± 2
9354 kPa	744.1 ± 2
9373 kPa	744.2 ± 2
9384 kPa	744.1 ± 2
9396 kPa	744.1 ± 2
9406 kPa	744.2 ± 2
9419 kPa	744.2 ± 2
9429 kPa	744.2 ± 2
9442 kPa	744 ± 2
9452 kPa	744.2 ± 2
9464 kPa	744.2 ± 2
9476 kPa	744.2 ± 2
9488 kPa	744.1 ± 2
9499 kPa	744.1 ± 2
9517 kPa	744.3 ± 2
9532 kPa	744.2 ± 2
9543 kPa	744.3 ± 2
9556 kPa	744.2 ± 2
9564 kPa	744.3 ± 2
9577 kPa	744.1 ± 2
9588 kPa	744.2 ± 2
9597 kPa	744.3 ± 2
9605 kPa	744.2 ± 2
9614 kPa	744.3 ± 2
9623 kPa	744.3 ± 2
9633 kPa	744.3 ± 2
9642 kPa	744.3 ± 2
9651 kPa	744.3 ± 2
9663 kPa	744.4 ± 2
9675 kPa	744.4 ± 2
9685 kPa	744.4 ± 2
9695 kPa	744.3 ± 2
9704 kPa	744.3 ± 2
9726 kPa	744.3 ± 2
9736 kPa	744.5 ± 2
9746 kPa	744.3 ± 2
9758 kPa	744.3 ± 2
9766 kPa	744.3 ± 2
9777 kPa	744.4 ± 2
9784 kPa	744.2 ± 2
9795 kPa	744.3 ± 2
9803 kPa	744.3 ± 2
9814 kPa	744.5 ± 2
9822 kPa	744.5 ± 2
9835 kPa	744.4 ± 2
9845 kPa	744.4 ± 2
9855 kPa	744.5 ± 2
9870 kPa	744.4 ± 2
9880 kPa	744.4 ± 2
9892 kPa	744.5 ± 2
9905 kPa	744.5 ± 2
9914 kPa	744.5 ± 2
9923 kPa	744.5 ± 2
9931 kPa	744.5 ± 2
9940 kPa	744.5 ± 2
9949 kPa	744.5 ± 2
9961 kPa	744.5 ± 2
9973 kPa	744.5 ± 2
9982 kPa	744.6 ± 2
9992 kPa	744.5 ± 2
10001 kPa	744.6 ± 2
10013 kPa	744.5 ± 2
10022 kPa	744.5 ± 2
10032 kPa	744.6 ± 2
10042 kPa	744.5 ± 2
10056 kPa	744.6 ± 2
10066 kPa	744.7 ± 2
10076 kPa	744.6 ± 2
10086 kPa	744.5 ± 2
10097 kPa	744.5 ± 2
10108 kPa	744.5 ± 2
10119 kPa	744.6 ± 2
10131 kPa	744.6 ± 2
10144 kPa	744.6 ± 2
10160 kPa	744.6 ± 2
10170 kPa	744.6 ± 2
10185 kPa	744.6 ± 2
10195 kPa	744.6 ± 2
10205 kPa	744.6 ± 2
10215 kPa	744.7 ± 2
10224 kPa	744.7 ± 2
10234 kPa	744.6 ± 2
10242 kPa	744.7 ± 2
10252 kPa	744.7 ± 2
10263 kPa	744.8 ± 2
10274 kPa	744.8 ± 2
10285 kPa	744.6 ± 2
10295 kPa	744.7 ± 2
10305 kPa	744.7 ± 2
10317 kPa	744.7 ± 2
10331 kPa	744.7 ± 2
10342 kPa	744.8 ± 2
10353 kPa	744.7 ± 2
10374 kPa	744.8 ± 2
10384 kPa	744.8 ± 2
10397 kPa	744.8 ± 2
10407 kPa	744.8 ± 2
10445 kPa	744.8 ± 2
10457 kPa	745 ± 2
10500 kPa	744.9 ± 2
10514 kPa	744.9 ± 2
10540 kPa	744.9 ± 2
10683 kPa	745 ± 2
10698 kPa	745.1 ± 2
10709 kPa	745 ± 2
10720 kPa	745.1 ± 2
10735 kPa	745.1 ± 2
10744 kPa	745 ± 2
10761 kPa	745 ± 2
10780 kPa	745 ± 2
10791 kPa	745.2 ± 2
10802 kPa	745.1 ± 2
10816 kPa	745.1 ± 2
10830 kPa	745 ± 2
10841 kPa	745.1 ± 2
10852 kPa	745.2 ± 2
10867 kPa	745.1 ± 2
10880 kPa	745.2 ± 2
10894 kPa	745.2 ± 2
10907 kPa	745.1 ± 2
10924 kPa	745.1 ± 2
10938 kPa	745.2 ± 2
10953 kPa	745.3 ± 2
10965 kPa	745.2 ± 2
10983 kPa	745.2 ± 2
11010 kPa	745.1 ± 2
11026 kPa	745.2 ± 2
11036 kPa	745.2 ± 2
11049 kPa	745.3 ± 2
11068 kPa	745.2 ± 2
11079 kPa	745.3 ± 2
11097 kPa	745.2 ± 2
11109 kPa	745.3 ± 2
11124 kPa	745.3 ± 2
11134 kPa	745.3 ± 2
11149 kPa	745.3 ± 2
11159 kPa	745.2 ± 2
11173 kPa	745.3 ± 2
11183 kPa	745.5 ± 2
11197 kPa	745.3 ± 2
11207 kPa	745.3 ± 2
11227 kPa	745.3 ± 2
11242 kPa	745.4 ± 2
11258 kPa	745.5 ± 2
11268 kPa	745.4 ± 2
11284 kPa	745.4 ± 2
11299 kPa	745.5 ± 2
11309 kPa	745.4 ± 2
11322 kPa	745.4 ± 2
11339 kPa	745.5 ± 2
11351 kPa	745.5 ± 2
11366 kPa	745.5 ± 2
11378 kPa	745.4 ± 2
11399 kPa	745.5 ± 2
11416 kPa	745.6 ± 2
